Assay results: ChEMBL document CHEMBL1141741, “Coluteol and Colutequinone B, More Antifungal Isoflavonoids from Colutea arborescens” (1998)

Each molecule was assayed on Saccharomyces cerevisiae (assay: Antimicrobial activity against Saccharomyces cerevisiae).
Assay type: functional

**Q.** `COC1=C(OC)C(=O)C([C@@H]2COc3cc(OC)ccc3C2)=CC1=O` [COLUTEQUINONE A] was tested. Which MIC did it give?
**A.** < 50 µg/mL

**Q.** How did the MIC turn out when `COc1ccc2c(c1)OC[C@@H](c1cc(O)c(OC)c(O)c1OC)C2` [R-COLUTEOL] was run?
**A.** < 100 µg/mL

**Q.** With NYSTATIN as the molecule, how does the MIC read?
**A.** < 5 µg/mL

**Q.** For `COC1=CC(=O)C([C@@H]2COc3cc(OC)ccc3C2)=C(OC)C1=O` [COLUTEQUINONE B], which MIC is on record?
**A.** < 50 µg/mL
